Laboratory results published in ChEMBL document CHEMBL1765090, “Design and evaluation of fragment-like estrogen receptor tetrahydroisoquinoline ligands from a scaffold-detection approach” (J Med Chem, 2011).

Columns and labels:
Estrogen receptor [1] = biological target: T1, Estrogen receptor (Homo sapiens, UniProt P03372)
T1 sequence (P03372 whole entry): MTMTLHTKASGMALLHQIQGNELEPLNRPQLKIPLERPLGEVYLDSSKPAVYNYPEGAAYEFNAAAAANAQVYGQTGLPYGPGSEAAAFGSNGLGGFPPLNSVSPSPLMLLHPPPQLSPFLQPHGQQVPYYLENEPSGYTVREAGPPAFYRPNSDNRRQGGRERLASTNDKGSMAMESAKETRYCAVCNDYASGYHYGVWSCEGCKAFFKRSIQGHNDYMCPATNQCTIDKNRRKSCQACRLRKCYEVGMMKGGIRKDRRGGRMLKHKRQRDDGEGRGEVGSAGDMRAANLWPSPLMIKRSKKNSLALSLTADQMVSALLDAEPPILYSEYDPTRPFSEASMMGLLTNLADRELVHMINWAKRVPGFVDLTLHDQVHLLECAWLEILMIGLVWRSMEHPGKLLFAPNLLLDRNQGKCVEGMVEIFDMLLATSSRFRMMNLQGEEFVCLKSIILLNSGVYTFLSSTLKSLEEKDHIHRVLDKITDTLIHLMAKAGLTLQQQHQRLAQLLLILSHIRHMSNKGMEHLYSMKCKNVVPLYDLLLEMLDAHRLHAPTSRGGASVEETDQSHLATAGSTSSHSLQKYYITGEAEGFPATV
Description: (§1) Agonist activity at human N-terminal His6-tagged ERalpha receptor LBD expressed in Escherichia coli BL21 (DE3) assessed as induction of SRC1 peptide recruitment after 1 hr by fluorescence polarization assay

Estrogen receptor beta [2] = biological target: T2, Estrogen receptor beta (Homo sapiens, UniProt Q92731)
Description: (§2) Agonist activity at human N-terminal His6-tagged ERbeta receptor LBD expressed in Escherichia coli BL21 (DE3) assessed as induction of SRC1 peptide recruitment after 1 hr by fluorescence polarization assay

Estrogen receptor [3] = biological target: T1, Estrogen receptor; remark: listed apart in the source
Description: as §1

Estrogen receptor beta [4] = biological target: T2, Estrogen receptor beta; remark: listed apart in the source
Description: as §2

Estrogen receptor beta [5] = biological target: T2, Estrogen receptor beta; assay: Transcriptional activation of human ERbeta receptor transfected in human U2OS cells assessed as increase of luciferase activity by estrogen response element-luciferase reporter gene assay relative to control; type: cell-based
Estrogen receptor [6] = biological target: T1, Estrogen receptor; assay: Transcriptional activation of human ERalpha receptor transfected in human U2OS cells assessed as increase of luciferase activity by estrogen response element-luciferase reporter gene assay; type: cell-based
Estrogen receptor beta [7] = biological target: T2, Estrogen receptor beta; assay: Transcriptional activation of human ERbeta receptor transfected in human U2OS cells assessed as increase of luciferase activity by estrogen response element-luciferase reporter gene assay; type: cell-based
[8] = biological target: T3, Estrogen receptor (Homo sapiens) (UniProt P03372); assay: Transcriptional activation of human ERalpha receptor transfected in human U2OS cells assessed as increase of luciferase activity by estrogen response element-luciferase reporter gene assay relative to control; type: cell-based
T3 sequence (whole entry): T1 sequence (P03372 whole entry)

T2 sequence (Q92731 whole entry): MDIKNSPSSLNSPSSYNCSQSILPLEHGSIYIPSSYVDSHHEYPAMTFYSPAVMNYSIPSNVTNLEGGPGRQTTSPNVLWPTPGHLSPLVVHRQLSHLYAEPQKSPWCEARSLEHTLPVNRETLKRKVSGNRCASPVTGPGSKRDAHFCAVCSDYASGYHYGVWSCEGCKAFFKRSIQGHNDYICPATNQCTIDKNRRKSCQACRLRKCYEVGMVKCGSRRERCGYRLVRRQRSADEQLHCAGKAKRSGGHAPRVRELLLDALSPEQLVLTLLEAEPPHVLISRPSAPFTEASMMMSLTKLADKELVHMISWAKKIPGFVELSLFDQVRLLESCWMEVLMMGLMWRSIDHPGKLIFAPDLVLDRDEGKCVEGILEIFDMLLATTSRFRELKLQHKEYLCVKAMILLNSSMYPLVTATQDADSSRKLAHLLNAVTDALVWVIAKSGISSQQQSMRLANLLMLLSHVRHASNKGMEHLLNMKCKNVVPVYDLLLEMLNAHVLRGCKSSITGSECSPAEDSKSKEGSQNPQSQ

Row | Structure (SMILES) | EC50 (Estrogen receptor [1]) [µM] | EC50 (Estrogen receptor beta [2]) [µM] | EC50 (Estrogen receptor [3]) | other results
1 | CC(=O)N1CCc2cc(O)ccc2C1 |  |  | Not Active | EC50 (Estrogen receptor beta [4]): Not Active
2 | O=C(N1CCc2ccccc2C1)C(F)(F)F |  |  | Not Active | EC50 (Estrogen receptor beta [4]): Not Active
3 | CS(=O)(=O)N1CCc2ccccc2C1 |  |  | Not Active | EC50 (Estrogen receptor beta [4]): Not Active
4 | Br.Oc1ccc2c(c1)CCNC2 |  |  | Not Active | 
5 | Br.Oc1ccc2c(c1)CNCC2 |  |  | Not Active | 
6 | O=C(N1CCc2cc(O)ccc2C1)C(F)(F)F | 5.2 | 0.9 |  | 
7 | Br.Oc1cc2c(cc1O)CNCC2 |  |  | Not Active | 
8 | CC(=O)N1CCc2ccccc2C1 |  |  | Not Active | EC50 (Estrogen receptor beta [4]): Not Active

Second part, led by results:

Row | EC50 (Estrogen receptor [1]) [µM] | EC50 (Estrogen receptor beta [2]) [µM] | Structure (SMILES) | EC50 (Estrogen receptor [3]) | other results
9 | 340 | 227 | COc1ccc2c(c1)CCN(C(=O)C(F)(F)F)C2 |  | 
10 | 600 | 30 | O=S(=O)(c1cccc2ccccc12)N1CCc2ccc(O)cc2C1 |  | 
11 | 3 | 0.6 | O=S(=O)(N1CCc2cc(O)ccc2C1)C(F)(F)F |  | fold change (FC) (Estrogen receptor beta [5]): 7; EC50 (Estrogen receptor [6]): 1.87 µM; EC50 (Estrogen receptor beta [7]): 0.31 µM; fold change (FC) [8]: 33
12 | 6.2 | 3.2 | O=C(N1CCc2cc(O)ccc2C1)C(Cl)(Cl)Cl |  | 
13 | 2.3 | 1.6 | O=C(N1CCc2cc(O)ccc2C1)C(F)(F)Cl |  | 
14 | 700 | 60 | O=S(=O)(c1cccc2ccccc12)N1CCc2cc(O)ccc2C1 |  | 
15 | 170 | 20 | CS(=O)(=O)N1CCc2cc(O)ccc2C1 |  | 
16 |  | 1.1 | CC(C)(C)OC(=O)N1CCc2cc(O)ccc2C1 |  | 
17 | 20 | 3.8 | O=C(N1CCc2ccc(O)cc2C1)C(F)(F)F |  | 
18 |  | 1 | O=S(=O)(c1ccccc1)N1CCc2cc(O)ccc2C1 |  | 
